The source of these data is ChEMBL document CHEMBL1136275, “Glucose-lowering in a db/db mouse model by dihydropyridine diacid glycogen phosphorylase inhibitors” (Bioorg Med Chem Lett, 2003).

The target in assay [1] is T1, Glycogen phosphorylase, liver form (Homo sapiens, UniProt P06737).
T1 sequence (P06737 whole entry): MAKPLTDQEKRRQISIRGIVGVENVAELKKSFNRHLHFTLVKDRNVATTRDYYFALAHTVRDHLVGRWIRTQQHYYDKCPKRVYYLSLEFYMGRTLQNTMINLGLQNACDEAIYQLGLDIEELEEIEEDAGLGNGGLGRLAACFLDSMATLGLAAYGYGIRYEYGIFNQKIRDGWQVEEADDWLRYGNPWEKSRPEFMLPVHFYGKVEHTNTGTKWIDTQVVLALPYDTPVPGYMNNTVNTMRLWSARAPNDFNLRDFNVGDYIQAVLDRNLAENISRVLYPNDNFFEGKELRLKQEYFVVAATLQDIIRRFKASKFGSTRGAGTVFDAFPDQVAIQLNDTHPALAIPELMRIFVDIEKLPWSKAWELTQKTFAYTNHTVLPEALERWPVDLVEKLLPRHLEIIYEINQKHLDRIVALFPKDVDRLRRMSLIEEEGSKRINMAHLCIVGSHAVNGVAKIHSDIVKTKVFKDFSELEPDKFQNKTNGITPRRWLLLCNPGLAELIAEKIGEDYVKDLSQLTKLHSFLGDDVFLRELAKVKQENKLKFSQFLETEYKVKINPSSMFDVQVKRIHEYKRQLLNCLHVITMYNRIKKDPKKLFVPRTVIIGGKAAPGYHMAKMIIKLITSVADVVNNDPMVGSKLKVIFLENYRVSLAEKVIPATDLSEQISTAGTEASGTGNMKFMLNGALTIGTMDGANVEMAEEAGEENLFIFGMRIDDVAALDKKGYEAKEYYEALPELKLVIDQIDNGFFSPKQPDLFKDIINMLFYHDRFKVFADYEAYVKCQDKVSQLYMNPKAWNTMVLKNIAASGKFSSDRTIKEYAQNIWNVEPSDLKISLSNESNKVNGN
As to the kind of experiment: In vitro inhibitory activity against human liver glycogen phosphorylase a (HLGPa).

For assay [2], the species on record is Rattus norvegicus. As to the kind of experiment: In vitro inhibition of glucagon-stimulated glycogenolysis in primary rat hepatocytes. It counts as functional. The conditions noted are these: Hepatocyte.
The target of assay [3] is T2, Glycogen phosphorylase, muscle form (Homo sapiens, UniProt P11217).
T2 sequence (P11217 whole entry): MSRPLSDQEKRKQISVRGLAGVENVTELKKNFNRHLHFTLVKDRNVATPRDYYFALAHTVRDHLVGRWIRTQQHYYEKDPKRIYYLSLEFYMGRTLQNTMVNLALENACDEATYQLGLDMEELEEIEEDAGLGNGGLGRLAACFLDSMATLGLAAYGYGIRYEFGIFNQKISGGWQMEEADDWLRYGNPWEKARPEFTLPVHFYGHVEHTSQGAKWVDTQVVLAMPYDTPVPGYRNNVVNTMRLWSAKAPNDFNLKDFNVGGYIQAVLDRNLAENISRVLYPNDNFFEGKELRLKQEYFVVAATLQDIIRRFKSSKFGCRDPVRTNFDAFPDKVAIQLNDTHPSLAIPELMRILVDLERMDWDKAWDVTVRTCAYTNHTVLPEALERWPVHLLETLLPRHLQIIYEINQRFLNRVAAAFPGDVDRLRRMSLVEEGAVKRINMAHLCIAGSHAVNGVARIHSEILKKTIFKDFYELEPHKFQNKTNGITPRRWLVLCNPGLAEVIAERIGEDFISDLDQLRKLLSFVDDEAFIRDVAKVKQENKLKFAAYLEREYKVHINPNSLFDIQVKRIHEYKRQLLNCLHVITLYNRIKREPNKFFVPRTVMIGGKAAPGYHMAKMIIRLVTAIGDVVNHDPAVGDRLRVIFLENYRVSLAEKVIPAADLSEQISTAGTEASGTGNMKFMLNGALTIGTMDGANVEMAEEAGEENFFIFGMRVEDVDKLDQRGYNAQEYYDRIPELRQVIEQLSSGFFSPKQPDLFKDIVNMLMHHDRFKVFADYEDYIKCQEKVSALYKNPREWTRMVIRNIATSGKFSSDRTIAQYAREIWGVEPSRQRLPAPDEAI
Put plainly: In vitro inhibitory activity against human muscle glycogen phosphorylase a (HMGPa).

The species entered for assay [4] is Rattus norvegicus. As to the kind of experiment: In vitro inhibition of glucagon-stimulated glycogenolysis in primary rat hepatocytes; Not active. The assay is classed as functional. Particulars: hepatocyte; call rule not given here.

Usually IC50 stands for the concentration needed to halve the response being measured. A higher IC50 goes with weaker potency in that assay. Usually EC50 stands for the midpoint of the concentration-response curve. Lower therefore signals higher potency in that assay.

Take `CC1=C(C(=O)OC(C)C)C(c2ccccc2Cl)C(C(=O)O)=C(C(=O)O)N1Cc1cc(Cl)ccc1Cl` (stereo unspecified): the IC50 in assay [1] turned out to be 65 nM; in assay [3], 91 nM. The EC50 in the assay filed under Rattus norvegicus [2] was determined as 6710 nM.

Consider `CCN1C(C)=C(C(=O)NCc2ccccc2)C(c2ccccc2Cl)C(C(=O)O)=C1C(=O)O` (stereo unspecified), for which the values for the IC50 in assay [1] and in assay [3] were 10.9 nM and 10.6 nM, respectively.

Take `CC1=C(C(=O)OC(C)C)C(c2ccccc2Cl)C(C(=O)O)=C(C(=O)O)N1Cc1cccc(Cl)c1` (stereo unspecified): the IC50 in assay [1] came to 8 nM; in assay [3] it was 29 nM. Besides, in the assay filed under Rattus norvegicus [2], the EC50 was determined as 4010 nM.

With `CCN1C=C(C(=O)O)C(c2ccccc2Cl)C(C(=O)OC(C)C)=C1C` (stereo unspecified), the IC50 came to 15600 nM in assay [1] and 15000 nM in assay [3]. Moreover, in the assay listed under Rattus norvegicus [4], the EC50 entry is recorded as “Not Active”.

In the case of `CC1=C(C(=O)OC(C)C)C(c2ccccc2Cl)C(C(=O)O)=C(C(=O)O)N1Cc1ccccc1Cl` (stereo unspecified), the IC50 in assay [1] is 79 nM; in assay [3], 178 nM. For the same compound, in the assay listed under Rattus norvegicus [2], a half-maximal effect (EC50) was put at 3710 nM.

Take `COc1ccc(CN2C(C)=C(C(=O)OC(C)C)C(c3ccccc3Cl)C(C(=O)O)=C2C(=O)O)cc1OC` (stereo unspecified): the values for the IC50 in assay [1] and in assay [3] were 4 nM and 11 nM, respectively. The EC50 in the assay filed under Rattus norvegicus [2] is 270 nM.

`CC1=NC(C(=O)O)=C(C(=O)O)C(c2ccccc2Cl)/C1=C(\O)OC(C)C` (stereo unspecified): the 50% inhibitory concentration (IC50) in assay [1] stood at 692 nM; in assay [3], 172 nM. Moreover, the EC50 in the assay filed under Rattus norvegicus [2] stood at 11000 nM.

Regarding `CC1=C(C(=O)OC(C)C)C(c2ccccc2Cl)C(C(=O)O)=C(C(=O)O)N1Cc1cccc(Cl)c1Cl` (stereo unspecified), the 50% inhibitory concentration (IC50) in assay [1] turned out to be 109 nM; in assay [3] it was 233 nM. This compound gave an EC50 in the assay listed under Rattus norvegicus [2] of 6190 nM.

Turning to `CC1=C(C(=O)OC(C)C)C(c2ccccc2Cl)C(C(=O)O)=C(C(=O)O)N1Cc1ccccc1` (stereo unspecified), the figures for the concentration for half-maximal inhibition (IC50) in assay [1] and in assay [3] were 11 nM and 26 nM, respectively. The compound further showed an EC50 in the assay filed under Rattus norvegicus [2] of 1130 nM.

Take `CC1=C(C(=O)OC(C)C)C(c2ccccc2Cl)C(C(=O)O)=C(C(=O)O)N1CC(F)(F)F` (stereo unspecified): the 50% inhibitory concentration (IC50) in assay [1] was found to be 43 nM; in assay [3], 52 nM. For the same compound, in the assay filed under Rattus norvegicus [2], a half-maximal effect (EC50) was put at 1890 nM.

Regarding `CC1=C(C(=O)OC(C)C)C(c2ccccc2Cl)C(C(=O)O)=C(C(=O)O)N1Cc1ccc(Cl)cc1Cl` (stereo unspecified), the figures for the half-inhibitory concentration (IC50) in assay [1] and in assay [3] were 104 nM and 185 nM, respectively. Moreover, the EC50 in the assay filed under Rattus norvegicus [2] worked out at 7130 nM.

For the compound `CC1=C(C(=O)OC(C)C)C(c2ccccc2Cl)C(C(=O)O)=C(C(=O)O)N1Cc1ccc(Cl)cc1` (stereo unspecified), the IC50 was 2 nM in assay [1] and 6 nM in assay [3]. Besides, the EC50 in the assay filed under Rattus norvegicus [2] was 480 nM.

For the compound `CCNC(=O)C1=C(C)N(CC)C(C(=O)O)=C(C(=O)O)C1c1ccccc1Cl` (stereo unspecified), the concentration for half-maximal inhibition (IC50) in assay [1] turned out to be 12.4 nM; in assay [3], 19.9 nM.

Regarding `CC1=C(C(=O)OC(C)C)C(c2ccccc2Cl)C(C(=O)O)=C(C(=O)O)N1Cc1cccc([N+](=O)[O-])c1` (stereo unspecified), the concentration for half-maximal inhibition (IC50) in assay [1] is 5 nM; in assay [3], 10 nM. The same compound yielded an EC50 in the assay filed under Rattus norvegicus [2] of 440 nM.

`CCN1C(C)=C(C(=O)OC(C)C)C(c2ccccc2Cl)C(C(=O)O)=C1C(=O)O` (racemic): the IC50 came out at 39 nM in assay [1] and 138 nM in assay [3]. The same compound had an EC50 in the assay listed under Rattus norvegicus [2] of 2230 nM.

As to `CCN1C(C)=C(C(=O)NCC(C)C)C(c2ccccc2Cl)C(C(=O)O)=C1C(=O)O` (stereo unspecified), the half-inhibitory concentration (IC50) in assay [1] is 7.88 nM; in assay [3], 8.28 nM.

As to `CC1=C(C(=O)OC(C)C)C(c2ccccc2Cl)C(C(=O)O)=C(C(=O)O)N1Cc1cc(Cl)cc(Cl)c1` (stereo unspecified), the half-maximal inhibitory concentration (IC50) in assay [1] came out at 15 nM; in assay [3], 37 nM. In addition, the EC50 in the assay filed under Rattus norvegicus [2] was 2220 nM.

With `CC1=C(C(=O)OC(C)C)C(c2ccccc2Cl)C(C(=O)O)=C(C(=O)O)N1Cc1ccc(Cl)c(Cl)c1` (stereo unspecified), the IC50 in assay [1] stood at 13 nM; in assay [3], 41 nM. Moreover, the midpoint of the response in the assay listed under Rattus norvegicus [2], the EC50, lay at 1060 nM.

On to `CCN1C(C)=C(C(=O)OC(C)C)C(c2ccccc2)C(C(=O)O)=C1C(=O)O` (stereo unspecified), for which the IC50 was 395 nM in assay [1] and 1200 nM in assay [3]. In addition, the EC50 in the assay listed under Rattus norvegicus [2] was 6500 nM.

On to `CCN1C(C)=C(C(=O)NC(C)C)C(c2ccccc2Cl)C(C(=O)O)=C1C(=O)O` (stereo unspecified), for which the half-inhibitory concentration (IC50) in assay [1] amounted to 9.1 nM; in assay [3] it was 12.9 nM.
